The assay deals with rabbit skeletal muscle myofibril preparations (approximately 90% fast fibers). The assay is described as follows: Activation of fast skeletal muscle fibers: enzymatic activity of myofibril preparations (PUMA assay system). Further details: unit not given here. Conditions: detergent treated myofibrils at pCa25%, 500 μM ATP. Type of assay: biochemical. From the text: Fast fiber activators were identified by measuring the enzymatic activity of muscle myofibril preparations using the proprietary PUMA™ (see, e.g., U.S. Pat. Nos. 6,410,254, 6,743,599, 7,202,051, and 7,378,254) assay system. Myofibril preparations consisted of rabbit skeletal muscle (approximately 90% fast fibers) that had been treated with a detergen (triton X-100) to remove cellular membranes and then homogenized. This preparation retained all of the sarcomeric components in a native conformation and the enzymatic activity was still regulated by calcium. Compounds were tested using a myofibril suspension and a level of calcium sufficient to increase enzymatic activity of the myofibrils to 25% of their maximal rate (termed pCa25%). Enzymatic activity was tracked via a kinetic assay with a UV absorption readout. Hits were identified as compounds that increased the rate of enzymatic activity by greater than 40% at 40 μM. Myofibril preparations are calcium regulated and were screened at a level of calcium sufficient to produce a 25% increase in enzymatic rate. Detergent treated myofibrils were incubated with 500 μM ATP and 40 μM compound and a kinetic read of UV absorbance performed. Data was normalized to control wells.

For the substance “1-(ethylpropyl)-7-phenylimidazo[4,5-b]pyridin-2-ol”, the “AC1.4 Median” value (median value (no †)) is 2.083.

Take “2-[6-chloro-1-(ethylpropyl)-2-hydroxyimidazo[4,5-b]pyridin-7-yl]benzamide”: the “AC1.4 Median” value (median value (no †)) is on record as 36.169.

On to “2-[6-chloro-1-(ethylpropyl)-2-hydroxyimidazo[4,5-b]pyridin-7-yl]benzenecarbonitrile”, for which the “AC1.4 Median” value (median value (no †)) came out at 2.886.

As for “3-[6-chloro-1-(ethylpropyl)-2-hydroxyimidazo[4,5-b]pyridin-7-yl]benzenecarbonitrile”, under “median value (no †)”, the “AC1.4 Median” value is 3.336.

For the substance “4-[6-chloro-1-(ethylpropyl)-2-hydroxyimidazo[4,5-b]pyridin-7-yl]benzenecarbonitrile”, the “AC1.4 Median” value (cells marked †: Mean value) is reported as 0.405†.

“6-[6-chloro-1-(ethylpropyl)-2-hydroxyimidazo[4,5-b]pyridin-7-yl]pyridine-3-carbonitrile”: the “AC1.4 Median” value (median value (no †)) is reported as 2.892.

For the substance “6-chloro-1-(ethylpropyl)-7-(1-methyl(1H-indazol-5-yl))imidazo[4,5-b]pyridin-2-ol”, under “median value (no †)”, the “AC1.4 Median” value amounted to 5.365.

Consider “6-chloro-1-(ethylpropyl)-7-(1-methyl(1H-indazol-6-yl))imidazo[4,5-b]pyridin-2-ol”, for which the “AC1.4 Median” value (median value (no †)) is reported as 20.233.

In the case of “6-chloro-1-(ethylpropyl)-7-(1-methylpyrazol-3-yl)imidazo[4,5-b]pyridin-2-ol”, for the setting “median value (no †)”, the “AC1.4 Median” value stood at 1.7950.

As to “6-chloro-1-(ethylpropyl)-7-(1-methylpyrazol-4-yl)imidazo[4,5-b]pyridin-2-ol”, the “AC1.4 Median” value (median value (no †)) turned out to be 17.805.

Regarding “6-chloro-1-(ethylpropyl)-7-(2-fluoro-4-methoxyphenyl)imidazo[4,5-b]pyridin-2-ol”, where the note is “median value (no †)”, the “AC1.4 Median” value is 0.942.

Regarding “6-chloro-1-(ethylpropyl)-7-(2-fluorophenyl)imidazo[4,5-b]pyridin-2-ol”, for the setting “cells marked †: Mean value”, the “AC1.4 Median” value was 0.230†.

As to “6-chloro-1-(ethylpropyl)-7-(2-methoxy(4-pyridyl))imidazo[4,5-b]pyridin-2-ol”, where the note is “median value (no †)”, the “AC1.4 Median” value amounted to 2.808.

As to “6-chloro-1-(ethylpropyl)-7-(2-methyl(1,2,3,4-tetraazol-5-yl))imidazo[4,5-b]pyridin-2-ol”, where the note is “median value (no †)”, the “AC1.4 Median” value was found to be 6.404.

For “6-chloro-1-(ethylpropyl)-7-(2-methyl(4-pyridyl))imidazo[4,5-b]pyridin-2-ol”, the “AC1.4 Median” value (median value (no †)) turned out to be 14.091.

With “6-chloro-1-(ethylpropyl)-7-(2-methylphenyl)imidazo[4,5-b]pyridin-2-ol”, under “median value (no †)”, the “AC1.4 Median” value came to 1.688.

Take “6-chloro-1-(ethylpropyl)-7-(2-pyridyl)imidazo[4,5-b]pyridin-2-ol”: under “median value (no †)”, the “AC1.4 Median” value amounted to 1.616.

As for “6-chloro-1-(ethylpropyl)-7-(3-fluoro(4-pyridyl))imidazo[4,5-b]pyridin-2-ol”, the “AC1.4 Median” value (median value (no †)) is given as 1.709.

On to “6-chloro-1-(ethylpropyl)-7-(3-fluoro-4-methoxyphenyl)imidazo[4,5-b]pyridin-2-ol”, for which the “AC1.4 Median” value (median value (no †)) is listed as 2.102.

Consider “6-chloro-1-(ethylpropyl)-7-(3-fluorophenyl)imidazo[4,5-b]pyridin-2-ol”, for which, where the note is “cells marked †: Mean value”, the “AC1.4 Median” value was 0.248†.

As for “6-chloro-1-(ethylpropyl)-7-(3-hydroxyphenyl)imidazo[4,5-b]pyridin-2-ol”, the “AC1.4 Median” value (median value (no †)) was 3.021.

Consider “6-chloro-1-(ethylpropyl)-7-(3-methoxyphenyl)imidazo[4,5-b]pyridin-2-ol”, for which the “AC1.4 Median” value (median value (no †)) is given as 2.001.

As for “6-chloro-1-(ethylpropyl)-7-(3-methylphenyl)imidazo[4,5-b]pyridin-2-ol”, the “AC1.4 Median” value (median value (no †)) is 0.482.

On to “6-chloro-1-(ethylpropyl)-7-(3-pyridyl)imidazo[4,5-b]pyridin-2-ol”, for which the “AC1.4 Median” value (median value (no †)) is recorded as 8.030.

Consider “6-chloro-1-(ethylpropyl)-7-(4-fluorophenyl)imidazo[4,5-b]pyridin-2-ol”, for which the “AC1.4 Median” value (cells marked †: Mean value) is 0.074†.

On to “6-chloro-1-(ethylpropyl)-7-(4-methoxyphenyl)imidazo[4,5-b]pyridin-2-ol”, for which the “AC1.4 Median” value (median value (no †)) is on record as 0.728.

Consider “6-chloro-1-(ethylpropyl)-7-(4-methyl(2-pyridyl))imidazo[4,5-b]pyridin-2-ol”, for which, for the setting “median value (no †)”, the “AC1.4 Median” value came out at 11.301.

Turning to “6-chloro-1-(ethylpropyl)-7-(4-methylphenyl)imidazo[4,5-b]pyridin-2-ol”, the “AC1.4 Median” value (cells marked †: Mean value) is reported as 0.336†.

On to “6-chloro-1-(ethylpropyl)-7-(4-pyridyl)imidazo[4,5-b]pyridin-2-ol”, for which the “AC1.4 Median” value (median value (no †)) stood at 3.015.

For the substance “6-chloro-1-(ethylpropyl)-7-(5-fluoro(2-pyridyl))imidazo[4,5-b]pyridin-2-ol”, where the note is “cells marked †: Mean value”, the “AC1.4 Median” value is listed as 0.268†.

With “6-chloro-1-(ethylpropyl)-7-(5-fluoro(3-pyridyl))imidazo[4,5-b]pyridin-2-ol”, for the setting “median value (no †)”, the “AC1.4 Median” value is 4.428.

“6-chloro-1-(ethylpropyl)-7-(5-methyl(1,2,4-oxadiazol-3-yl))imidazo[4,5-b]pyridin-2-ol”: for the setting “median value (no †)”, the “AC1.4 Median” value worked out at 4.017.

As for “6-chloro-1-(ethylpropyl)-7-(5-methyl(2-pyridyl))imidazo[4,5-b]pyridin-2-ol”, where the note is “median value (no †)”, the “AC1.4 Median” value is reported as 5.708.

As for “6-chloro-1-(ethylpropyl)-7-(5-methylpyrimidin-2-yl)imidazo[4,5-b]pyridin-2-ol”, the “AC1.4 Median” value (median value (no †)) is listed as 18.694.

“6-chloro-1-(ethylpropyl)-7-(6-methoxy(2-pyridyl))imidazo[4,5-b]pyridin-2-ol”: for the setting “cells marked †: Mean value”, the “AC1.4 Median” value is 0.562†.

As to “6-chloro-1-(ethylpropyl)-7-(6-methoxy(3-pyridyl))imidazo[4,5-b]pyridin-2-ol”, the “AC1.4 Median” value (median value (no †)) came to 2.232.

For the substance “6-chloro-1-(ethylpropyl)-7-(6-methyl(2-pyridyl))imidazo[4,5-b]pyridin-2-ol”, the “AC1.4 Median” value (median value (no †)) turned out to be 4.048.

“6-chloro-1-(ethylpropyl)-7-(6-methyl(3-pyridyl))imidazo[4,5-b]pyridin-2-ol”: the “AC1.4 Median” value (median value (no †)) came out at 12.164.

Turning to “6-chloro-1-(ethylpropyl)-7-[2-(methoxymethyl)phenyl]imidazo[4,5-b]pyridin-2-ol”, the “AC1.4 Median” value (median value (no †)) is 3.588.

As to “6-chloro-1-(ethylpropyl)-7-[2-(trifluoromethyl)(4-pyridyl)]imidazo[4,5-b]pyridin-2-ol”, the “AC1.4 Median” value (median value (no †)) turned out to be 3.590.

As for “6-chloro-1-(ethylpropyl)-7-[3-(hydroxymethyl)phenyl]imidazo[4,5-b]pyridin-2-ol”, the “AC1.4 Median” value (median value (no †)) was 14.377.

In the case of “6-chloro-1-(ethylpropyl)-7-[3-(methoxymethyl)phenyl]imidazo[4,5-b]pyridin-2-ol”, the “AC1.4 Median” value (median value (no †)) is given as 8.109.

With “6-chloro-1-(ethylpropyl)-7-[3-(trifluoromethoxy)phenyl]imidazo[4,5-b]pyridin-2-ol”, the “AC1.4 Median” value (median value (no †)) was 2.369.

With “6-chloro-1-(ethylpropyl)-7-[4-(methoxymethyl)phenyl]imidazo[4,5-b]pyridin-2-ol”, the “AC1.4 Median” value (median value (no †)) is 34.746.

With “6-chloro-1-(ethylpropyl)-7-[4-(trifluoromethoxy)phenyl]imidazo[4,5-b]pyridin-2-ol”, under “median value (no †)”, the “AC1.4 Median” value was found to be 0.781.

Regarding “6-chloro-1-(ethylpropyl)-7-[4-(trifluoromethyl)phenyl]imidazo[4,5-b]pyridin-2-ol”, the “AC1.4 Median” value (cells marked †: Mean value) is 0.274†.

For the substance “6-chloro-1-(ethylpropyl)-7-imidazolylimidazo[4,5-b]pyridin-2-ol”, the “AC1.4 Median” value (median value (no †)) is 22.2909.

As to “6-chloro-1-(ethylpropyl)-7-pyrazol-3-ylimidazo[4,5-b]pyridin-2-ol”, the “AC1.4 Median” value (median value (no †)) was determined as 26.881.

Consider “6-chloro-1-(ethylpropyl)-7-pyrazol-4-ylimidazo[4,5-b]pyridin-2-ol”, for which, under “median value (no †)”, the “AC1.4 Median” value is 38.791.

With “6-chloro-1-(ethylpropyl)-7-pyrazolylimidazo[4,5-b]pyridin-2-ol”, the “AC1.4 Median” value (median value (no †)) stood at 0.3235.

Consider “6-chloro-1-(methylethyl)-7-pyrazolylimidazo[4,5-b]pyridin-2-ol”, for which the “AC1.4 Median” value (median value (no †)) turned out to be 2.0829.

Consider “6-chloro-7-(2-chloro-4-methoxyphenyl)-1-(ethylpropyl)imidazo[4,5-b]pyridin-2-ol”, for which the “AC1.4 Median” value (median value (no †)) is reported as 1.898.

In the case of “6-chloro-7-(2-chloro-4-methylphenyl)-1-(ethylpropyl)imidazo[4,5-b]pyridin-2-ol”, the “AC1.4 Median” value (median value (no †)) was determined as 0.587.

Regarding “6-chloro-7-(3-chloro(4-pyridyl))-1-(ethylpropyl)imidazo[4,5-b]pyridin-2-ol”, the “AC1.4 Median” value (median value (no †)) is given as 4.471.

With “6-chloro-7-(3-chlorophenyl)-1-(ethylpropyl)imidazo[4,5-b]pyridin-2-ol”, the “AC1.4 Median” value (cells marked †: Mean value) was 0.330†.

Regarding “6-chloro-7-(4-chloro-3-fluorophenyl)-1-(ethylpropyl)imidazo[4,5-b]pyridin-2-ol”, the “AC1.4 Median” value (cells marked †: Mean value) is given as 0.116†.

Consider “6-chloro-7-(4-chlorophenyl)-1-(ethylpropyl)imidazo[4,5-b]pyridin-2-ol”, for which the “AC1.4 Median” value (cells marked †: Mean value) was 0.074†.

“6-chloro-7-(5-chloro(2-pyridyl))-1-(ethylpropyl)imidazo[4,5-b]pyridin-2-ol”: the “AC1.4 Median” value (cells marked †: Mean value) was 0.320†.

Regarding “6-chloro-7-(5-chloro(2-pyridyl))-1-(methylethyl)imidazo[4,5-b]pyridin-2-ol”, the “AC1.4 Median” value (median value (no †)) is recorded as 1.781.

In the case of “6-chloro-7-(5-chloro(2-thienyl))-1-(ethylpropyl)imidazo[4,5-b]pyridin-2-ol”, the “AC1.4 Median” value (cells marked †: Mean value) is 0.084†.

For the origin of these results see US7989469B2, “Certain chemical entities, compositions, and methods” (Cytokinetics, Incorporated, priority 2008, dated 2011).
